In this assay the test system is HSV-1. The assay can be described thus: HSV-1 infection of Vero 76 cells, viral DNA detected by hybridization capture (chemiluminescence). The class given is cell-based. The following applies: Human alphaherpesvirus 1; HSV-1 in Vero 76 cells, MOI=0.001, 40-48 hours at 37° C. The protocol: Vero 76 cells were maintained in MEM with Earle's salts, L-glutamine, 8% FBS (Hyclone, A-1111-L) and 100 units/mL Penicillin-100 μg/mL Streptomycin. For assay conditions, FBS was reduced to 2%. Cells are seeded into 96-well tissue culture plates at a density of 5×10^4 cells/well after being incubated for 45 min at 37° C. in the presence of HSV-1 or HSV-2 (MOI=0.001). Test compounds are added to the wells and the plates are incubated at 37° C. for 40-48 hours. Cell lysates are prepared as follows: media was removed and replaced with 150 VL/well 0.2 N NaOH with 1% Igepal CA 630 or NP-40. Plates were incubated up to 14 days at room temperature in a humidified chamber to prevent evaporation.
For the detection probe, a gel-purified, digoxigenin-labeled, 710-bp PCR fragment of the HSV UL-15 sequence was utilized. […]
Twenty-seven (27) μL of cell lysate was combined with 45 μL of hybridization solution (final concentration: 3M GuSCN, 50 mM EDTA, 100 μg/ml salmon sperm DNA, 5× Denhardt's solution, 0.25×APE, and 5 ng of the digoxigenin-labeled detection probe). […] The plates were incubated at room temperature for 30 minutes and chemiluminescence was measured in a Wallac Victor reader.

The structures appear in SMILES notation.

Usually IC50 stands for the concentration that inhibits the measured activity by half. Read a low IC50 as inhibition by little substance. In the case of `CSc1cc(N2CCOCC2)cc2c(-c3ccnc(NC4CCCC4)n3)c(-c3ccc(F)cc3)nn12` [Example 44, N-Cyclopentyl-4-[2-(4-fluorophenyl)-7-(methylthio)-5-morpholin-4-ylpyrazolo[1,5-α]pyridin-3-yl]pyrimidin-2-amine], the IC50 worked out at 500 nM. In turn, `CCSc1cc(Cl)cc2c(-c3ccnc(NC4CCCC4)n3)c(-c3ccc(F)cc3)nn12` [Example 32, N-{4-[5-Chloro-7-(ethylsulfanyl)-2-(4-fluorophenyl)pyrazolo[1,5-α]pyridin-3-yl]-2-pyrimidinyl}-N-cyclopentylamine] came in with an IC50 of 2000 nM.

Source of the values: patent US7109209B2, “Pyrazolopyridines, process for their preparation and use as therapeutic compounds” (SmithKline Beecham Corporation, priority 2001, dated 2006).
